{
  "source": "paper PMC6761804",
  "about": "(ACS Omega, 2019)",
  "system": "colorectal tumor of Apc^min/+ genetically engineered CRC mouse",
  "assay_type": "in vivo, Apc^min/+ mice",
  "conditions": "i.v. about 3.7 MBq, PET/CT after 1 h (Figure S4)",
  "data": [
    {"smiles": "OC[C@H]1OC(O)[C@H](F)[C@@H](O)[C@@H]1O", "note": "(stereo partly shown) [^18F-FDG, ^18F-Fluorodeoxyglucose, reference compound]", "values": [
      {"measurement": "Tumor enrichment in PET/CT (in words)", "value": "did not show ideal tumor enrichment"}
    ]}
  ]
}
